Measured values taken from patent US20090215822A1, “Substituted Oxadiazole Derivatives as Positive Allosteric Modulators of Metabotropic Glutamate Receptors” (NIKEM RESEARCH SRL, priority 2005, published 2009).
pEC50: −log10 of the molar value.

What was measured:
rat mGluR5 receptor = molecular target: T1, rat mGluR5 receptor (Rattus norvegicus, UniProt P31424); assay: mGluR5 assay on HEK-expressing rat mGluR5 (fluorescent cell based Ca2+ mobilization assay); conditions: for pEC50: HEK-293 cells stably expressing rat mGluR5, no co-addition of glutamate, mean of at least three independent experiments in duplicate, read-out: Ca++ Flux (mean EC50); for activation of rat mGluR5 receptors without co-addition of glutamate: HEK-rat mGluR5 cell line, no added glutamate or agonist
T1 construct: expressed in transfected cells
T1 sequence (P31424 21-1171 isoform P31424-2 limits assumed): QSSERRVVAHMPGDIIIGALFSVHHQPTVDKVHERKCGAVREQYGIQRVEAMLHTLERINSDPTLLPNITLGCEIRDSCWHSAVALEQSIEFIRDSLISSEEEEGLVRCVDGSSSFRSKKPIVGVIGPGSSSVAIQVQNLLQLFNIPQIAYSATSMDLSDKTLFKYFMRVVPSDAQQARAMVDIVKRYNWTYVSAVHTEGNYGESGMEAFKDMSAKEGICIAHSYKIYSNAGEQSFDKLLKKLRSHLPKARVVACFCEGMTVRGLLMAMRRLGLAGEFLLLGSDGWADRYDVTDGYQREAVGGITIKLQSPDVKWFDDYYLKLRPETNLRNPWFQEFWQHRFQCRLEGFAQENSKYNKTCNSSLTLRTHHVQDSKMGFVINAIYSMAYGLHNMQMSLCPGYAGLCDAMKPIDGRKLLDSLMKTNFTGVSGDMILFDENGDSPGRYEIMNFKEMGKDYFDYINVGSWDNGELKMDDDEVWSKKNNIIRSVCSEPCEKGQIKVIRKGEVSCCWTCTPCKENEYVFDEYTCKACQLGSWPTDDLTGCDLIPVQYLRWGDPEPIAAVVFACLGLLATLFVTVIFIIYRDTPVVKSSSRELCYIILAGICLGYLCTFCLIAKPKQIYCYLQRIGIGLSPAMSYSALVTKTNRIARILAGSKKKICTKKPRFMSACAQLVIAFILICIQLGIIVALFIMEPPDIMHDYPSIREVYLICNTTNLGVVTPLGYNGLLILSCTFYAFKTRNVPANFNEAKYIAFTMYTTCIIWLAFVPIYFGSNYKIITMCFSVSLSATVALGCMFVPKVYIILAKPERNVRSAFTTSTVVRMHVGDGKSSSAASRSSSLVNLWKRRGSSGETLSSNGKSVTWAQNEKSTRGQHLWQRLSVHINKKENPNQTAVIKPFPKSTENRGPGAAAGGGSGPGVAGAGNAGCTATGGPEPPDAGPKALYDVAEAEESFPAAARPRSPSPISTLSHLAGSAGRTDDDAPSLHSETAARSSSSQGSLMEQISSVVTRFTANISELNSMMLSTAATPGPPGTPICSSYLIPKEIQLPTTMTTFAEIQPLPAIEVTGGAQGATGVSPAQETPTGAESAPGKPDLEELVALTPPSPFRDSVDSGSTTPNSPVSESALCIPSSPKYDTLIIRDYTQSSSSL
Experimental: Positive functional expression of HEK-293 cells stably expressing rat mGluR5 receptor was determined by measuring intracellular Ca^2+ changes using a Fluorometric Imaging Plate Reader (FLIPR, Molecular Devices, Sunnyvale, Calif.) in response to glutamate or selective known mGluR5 agonists and antagonists. Rat mGluR5 RT-PCR products in HEK-293 cells were sequenced and found 100% identical to rat mGluR5 Genbank reference sequence (NM_017012). HEK-293 cells expressing rmGluR5 were maintained in media containing DMEM, dialyzed Fetal Bovine Serum (10%), Glutamax™ (2 mM), Penicillin (100 units/ml), Streptomycin (100 μg/ml), Geneticin (100 μg/ml) and Hygromycin-B (40 μg/ml) at 37° C./5% CO2.
After one day of incubation, cells were washed with assay buffer containing: 142 mM NaCl, 6 mM KCl, 1 mM Mg2SO4, 1 mM CaCl2, 20 mM HEPES, 1 g/L glucose, 0.125 mM sulfinpyrazone, pH 7.4. After 60 min of loading with 4 uM Fluo-4 (TefLabs, Austin, Tex.), the cells were washed three times with 50 μl of PBS Buffer and resuspended in […] of assay Buffer. The plates were then transferred to a Fluorometric Imaging Plate Reader (FLIPR, Molecular Devices, Sunnyvale, Calif.) for the assessment of intracellular calcium flux. After monitoring the baseline fluorescence for 10 seconds, increasing concentrations of representative compound (from 0.01 to 60 μM) of the present invention diluted in Assay Buffer (15 μl of 4× dilutions) was added to the cell. The final DMSO concentration in the assay was 0.3%. In each experiment, fluorescence was then monitored as a function of time for 3 minutes and the data analyzed using Microsoft Excel and GraphPad Prism. Each data point was also measured two times.
Under these experimental conditions, this HEK-rat mGluR5 cell line is able to directly detect positive allosteric modulators without the need of co-addition of glutamate or mGluR5 agonist.
The concentration-response curves of representative compounds of the present invention were generated using the Prism GraphPad software (Graph Pad Inc, San Diego, USA). The curves were fitted to a four-parameter logistic equation:
(Y=Bottom+(Top-Bottom)/(1+10̂((Log EC50−X)*Hill Slope)
allowing determination of EC50 values.
The Table 1 below represents the mean EC50 obtained from at least three independent experiments of selected molecules performed in duplicate.

mGluR5 = molecular target: T2, mGluR5 (Rattus norvegicus, UniProt P31424); conditions: Liu et al (2006), Zhang et al (2005); cited from earlier work
T2 construct: positive allosteric modulators of mGluR5 receptors in native preparations; endogenous in cells; host or cells: primary cortical astrocytes from Sprague-Dawley rat embryos (E16-19)
T2 sequence (P31424 21-1203): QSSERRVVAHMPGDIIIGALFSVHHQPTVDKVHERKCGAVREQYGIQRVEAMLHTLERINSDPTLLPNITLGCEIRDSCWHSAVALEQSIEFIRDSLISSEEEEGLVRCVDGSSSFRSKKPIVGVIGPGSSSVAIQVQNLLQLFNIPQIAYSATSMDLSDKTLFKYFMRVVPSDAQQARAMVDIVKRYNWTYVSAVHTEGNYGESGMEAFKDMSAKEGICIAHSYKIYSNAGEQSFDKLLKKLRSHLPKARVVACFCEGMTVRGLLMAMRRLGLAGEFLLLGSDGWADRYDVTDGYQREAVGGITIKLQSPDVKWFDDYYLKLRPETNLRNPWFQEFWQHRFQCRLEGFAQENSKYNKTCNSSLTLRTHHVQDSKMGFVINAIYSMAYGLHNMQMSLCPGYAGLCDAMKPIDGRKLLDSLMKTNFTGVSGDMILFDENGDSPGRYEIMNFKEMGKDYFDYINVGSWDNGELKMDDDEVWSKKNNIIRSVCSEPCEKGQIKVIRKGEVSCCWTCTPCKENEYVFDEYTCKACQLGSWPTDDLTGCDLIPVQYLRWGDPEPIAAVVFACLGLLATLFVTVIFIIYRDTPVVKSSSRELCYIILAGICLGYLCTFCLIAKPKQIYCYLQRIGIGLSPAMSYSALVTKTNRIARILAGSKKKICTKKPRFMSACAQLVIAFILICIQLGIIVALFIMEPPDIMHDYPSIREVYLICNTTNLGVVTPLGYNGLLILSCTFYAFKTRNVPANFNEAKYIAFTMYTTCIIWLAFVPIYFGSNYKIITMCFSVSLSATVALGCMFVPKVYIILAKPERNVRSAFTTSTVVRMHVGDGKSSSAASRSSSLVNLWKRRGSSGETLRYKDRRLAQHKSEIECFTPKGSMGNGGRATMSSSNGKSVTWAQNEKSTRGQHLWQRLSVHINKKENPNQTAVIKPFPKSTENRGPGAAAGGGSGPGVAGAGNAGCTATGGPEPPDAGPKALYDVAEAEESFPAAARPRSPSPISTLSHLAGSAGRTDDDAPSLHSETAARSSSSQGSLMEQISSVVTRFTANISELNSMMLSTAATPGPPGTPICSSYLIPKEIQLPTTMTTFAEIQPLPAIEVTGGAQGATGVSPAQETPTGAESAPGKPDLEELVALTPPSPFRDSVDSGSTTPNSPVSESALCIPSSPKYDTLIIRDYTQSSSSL

SMILES	melting point	pEC50 (rat mGluR5 receptor)	activation of rat mGluR5 receptors without co-addition of glutamate (rat mGluR5 receptor)	activity in rat cortical astrocytes culture in the absence of added glutamate (mGluR5)
O=C(c1ccc(F)c(F)c1)N1CCCC(c2noc(-c3ccc(F)cc3)n2)C1 (centres unmarked) [Example 10, (3,4-Difluoro-phenyl)-{3-[5-(4-fluoro-phenyl)-[1,2,4]oxadiazol-3-yl]-piperidin-1-yl}-methanone]	149 to 152 °C	> 6.00		
O=C(c1ccc(F)cn1)N1CCC[C@H](c2noc(-c3ccc(F)cc3)n2)C1 [Example 42, {(S)-3-[5-(4-Fluoro-phenyl)-[1,2,4]oxadiazol-3-yl]-piperidin-1-yl}-(5-fluoro-pyridin-2-yl)-methanone]	93 to 95 °C	5.00 to 6.00		
O=C(c1ccc(F)nc1)N1CCCC(c2noc(-c3ccccc3)n2)C1 (centres unmarked) [Example 29, (6-Fluoro-pyridin-3-yl)-[3-(5-phenyl-[1,2,4]oxadiazol-3-yl)-piperidin-1-yl]-methanone]	109 to 111 °C	> 6.00		
O=C(c1ccc(F)cc1)N1CCCC(c2noc(-c3ccccn3)n2)C1 (centres unmarked) [Example 11, (4-Fluoro-phenyl)-[3-(5-pyridin-2-yl-[1,2,4]oxadiazol-3-yl)-piperidin-1-yl]-methanone]	126 to 129 °C	5.00 to 6.00		
O=C(c1ccc(F)cc1)N1CCC[C@H](c2noc(-c3ccc(F)cn3)n2)C1 [Example 44, (S)-(4-fluorophenyl)-{3-[5-(5-fluoropyridin-2-yl)-[1,2,4]oxadiazol-3-yl]-piperidin-1-yl}-methanone]	108 to 110 °C	> 6.00		
O=C(c1ccc(F)cc1)N1CCCC(c2noc(-c3ccc(F)cc3F)n2)C1 (centres unmarked) [Example 13, {3-[5-(2,4-Difluoro-phenyl)-[1,2,4]oxadiazol-3-yl]-piperidin-1-yl}-(4-fluoro-phenyl)-methanone]	88 °C	> 6.00		
O=C(c1ccc(F)cc1)N1CCC[C@@H](c2noc(-c3ccc(F)cc3)n2)C1 [Example 2, (4-Fluoro-phenyl)-{(R)-3-[5-(4-fluoro-phenyl)-[1,2,4]oxadiazol-3-yl]-piperidin-1-yl}-methanone]	120 to 123 °C	5.00 to 6.00		
N#Cc1cccc(C(=O)Nc2cc(-c3ccccc3)nn2-c2ccccc2)c1 [CDPPB, reference compound]			activating	inactive
O=C(c1ccc(F)c(F)c1)N1CCCC(c2noc(-c3ccccc3F)n2)C1 (centres unmarked) [Example 3, (3,4-Difluoro-phenyl)-{3-[5-(2-fluoro-phenyl)-[1,2,4]oxadiazol-3-yl]-piperidin-1-yl}-methanone]	80 to 83 °C	> 6.00		
O=C(c1ccc(F)cc1)N1CCCC(c2noc(-c3ccncc3)n2)C1 (centres unmarked) [Example 14, (4-Fluoro-phenyl)-[3-(5-pyridin-4-yl-[1,2,4]oxadiazol-3-yl)-piperidin-1-yl]-methanone]	149 to 151 °C	5.00 to 6.00		
O=C(c1ccc(F)cc1F)N1CCCC(c2noc(-c3ccncc3)n2)C1 (centres unmarked) [Example 16, (2,4-Difluoro-phenyl)-[3-(5-pyridin-4-yl-[1,2,4]oxadiazol-3-yl)-piperidin-1-yl]-methanone]	137 to 139 °C	5.00 to 6.00		
Cc1cc(F)ccc1C(=O)N1CCCC(c2noc(-c3ccc(F)cc3F)n2)C1 (centres unmarked) [Example 31, {3-[5-(2,4-Difluoro-phenyl)-[1,2,4]oxadiazol-3-yl]-piperidin-1-yl}-(4-fluoro-2-methyl-phenyl)-methanone]	110 °C	5.00 to 6.00		
O=C(c1ccc(F)c(F)c1)N1CCCC(c2noc(-c3ccc(F)cc3F)n2)C1 (centres unmarked) [Example 17, (3,4-Difluoro-phenyl)-{3-[5-(2,4-difluoro-phenyl)-[1,2,4]oxadiazol-3-yl]-piperidin-1-yl}-methanone]	91 °C	> 6.00		

Now from value to compound, other results behind:

melting point	pEC50 (rat mGluR5 receptor)	activation of rat mGluR5 receptors without co-addition of glutamate (rat mGluR5 receptor)	SMILES	activity in rat cortical astrocytes culture in the absence of added glutamate (mGluR5)
117 to 119 °C	> 6.00		O=C(c1ccnc(F)c1)N1CCC[C@H](c2noc(-c3ccc(F)cc3)n2)C1 [Example 40, {(S)-3-[5-(4-Fluoro-phenyl)-[1,2,4]oxadiazol-3-yl]-piperidin-1-yl}-(2-fluoro-pyridin-4-yl)-methanone]	
		activating	Fc1cccc(/C=N/N=C/c2cccc(F)c2)c1 [DFB, reference compound]	inactive
132 to 134 °C	5.00 to 6.00		O=C(c1ccc(F)nc1)N1CCCC(c2noc(-c3ccncc3)n2)C1 (centres unmarked) [Example 21, (6-Fluoro-pyridin-3-yl)-[3-(5-pyridin-4-yl-[1,2,4]oxadiazol-3-yl)-piperidin-1-yl]-methanone]	
101 °C	5.00 to 6.00		O=C(c1ccc(F)cc1F)N1CCCC(c2noc(-c3ccc(F)cc3F)n2)C1 (centres unmarked) [Example 19, (2,4-Difluoro-phenyl)-{3-[5-(2,4-difluoro-phenyl)-[1,2,4]oxadiazol-3-yl]-piperidin-1-yl}-methanone]	
103 to 104 °C	> 6.00		O=C(c1ccc(F)nc1)N1CCC[C@H](c2noc(-c3ccc(F)cc3)n2)C1 [Example 36, {(S)-3-[5-(4-Fluoro-phenyl)-[1,2,4]oxadiazol-3-yl]-piperidin-1-yl}-(6-fluoro-pyridin-3-yl)-methanone]	
65 °C	> 6.00		Cc1oncc1C(=O)N1CCC[C@H](c2noc(-c3ccc(F)cc3)n2)C1 [Example 39, {(S)-3-[5-(4-Fluoro-phenyl)-[1,2,4]oxadiazol-3-yl]-piperidin-1-yl}-(5-methyl-isoxazol-4-yl)-methanone]	
116 to 117 °C	> 6.00		O=C(c1ccc(F)cc1F)N1CCCC(c2noc(-c3ccccc3)n2)C1 (centres unmarked) [Example 33, (2,4-Difluoro-phenyl)-[3-(5-phenyl-[1,2,4]oxadiazol-3-yl)-piperidin-1-yl]-methanone]	
		activating	O=C(Nc1ccc(Cl)cc1CN1C(=O)c2ccccc2C1=O)c1ccccc1O [CPPHA, reference compound]	inactive
79 °C	5.00 to 6.00		Cc1oncc1C(=O)N1CCCC(c2noc(-c3ccc(F)cc3F)n2)C1 (centres unmarked) [Example 24, {3-[5-(2,4-Difluoro-phenyl)-[1,2,4]oxadiazol-3-yl]-piperidin-1-yl}-(5-methyl-isoxazol-4-yl)-methanone]	
120 °C	> 6.00		O=C(c1ccc(F)c(F)c1)N1CCC[C@H](c2noc(-c3ccc(F)cc3)n2)C1 [Example 37, (3,4-Difluoro-phenyl)-{(S)-3-[5-(4-fluoro-phenyl)-[1,2,4]oxadiazol-3-yl]-piperidin-1-yl}-methanone]	
85 °C	> 6.00		Cc1noc(C)c1C(=O)N1CCC[C@H](c2noc(-c3ccc(F)cc3)n2)C1 [Example 38, (3,5-Dimethyl-isoxazol-4-yl)-{(S)-3-[5-(4-fluoro-phenyl)-[1,2,4]oxadiazol-3-yl]-piperidin-1-yl}-methanone]	
116 to 118 °C	> 6.00		O=C(c1ccc(F)c(F)c1)N1CCCC(c2noc(-c3ccccc3)n2)C1 (centres unmarked) [Example 32, (3,4-Difluoro-phenyl)-[3-(5-phenyl-[1,2,4]oxadiazol-3-yl)-piperidin-1-yl]-methanone]	
